Read-outs that look alike come from different tables or passages of the source.
Legend:
[1] = biological target: T1, CYP2C9 (Homo sapiens, UniProt P11712); conditions: for % Inhibition: Diclofenac 4′-hydroxylase, 20.7 mM (2.818 mg/ml)
[2] = test system: CYP3A4/5; assay: Induction of CYP3A4/5 in cultured human hepatocytes; conditions: for Relative potency (%): PAA 20.7 mM; for Fold induction: PAA 20.7 mM (concentration of maximum fold induction)
[3] = biological target: T1, CYP2C9; assay: In vitro CYP inhibition study, human liver microsomes, CYP2C9
[4] = biological target: CYP2D6 (Homo sapiens, UniProt P10635); conditions: for % Inhibition: Bufuralol 1′-hydroxylase, 20.7 mM (2.818 mg/ml)
[5] = biological target: T2, CYP2C8 (Homo sapiens, UniProt P10632); assay: In vitro CYP inhibition study, human liver microsomes, CYP2C8; assay type: in vitro ADME; conditions: for % Inhibition: Taxol 6α-hydroxylase
T2 construct: from tissue; host or cells: human liver microsomes
T2 sequence (P10632 1-490): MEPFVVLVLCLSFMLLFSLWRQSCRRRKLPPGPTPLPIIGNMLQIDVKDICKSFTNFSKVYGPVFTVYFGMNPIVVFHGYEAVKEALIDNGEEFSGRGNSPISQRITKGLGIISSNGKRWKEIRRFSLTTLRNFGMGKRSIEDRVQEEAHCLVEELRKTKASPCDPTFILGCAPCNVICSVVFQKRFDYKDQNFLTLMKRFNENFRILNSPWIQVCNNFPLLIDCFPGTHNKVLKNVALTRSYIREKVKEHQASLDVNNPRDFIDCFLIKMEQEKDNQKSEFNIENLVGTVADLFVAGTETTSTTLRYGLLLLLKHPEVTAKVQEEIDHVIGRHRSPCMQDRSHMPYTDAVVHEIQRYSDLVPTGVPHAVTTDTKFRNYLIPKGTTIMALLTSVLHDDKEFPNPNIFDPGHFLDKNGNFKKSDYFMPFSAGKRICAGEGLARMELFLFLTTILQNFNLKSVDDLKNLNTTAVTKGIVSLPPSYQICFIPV

[6] = test system: CYP3A4/5; assay type: in vitro ADME, human
[7] = biological target: T3, CYP2C19 (Homo sapiens, UniProt P33261); assay type: in vitro ADME; conditions: for % Inhibition: S-Mephenytoin 4′-hydroxylase
T3 construct: from tissue; host or cells: human liver microsomes

[8] = biological target: T4, CYP1A2 (Homo sapiens, UniProt P05177); assay type: in vitro ADME; conditions: for % Inhibition: 7-ethoxyresorufin-O-deethylase
T4 construct: from tissue; host or cells: human liver microsomes
T4 sequence (P05177 1-516): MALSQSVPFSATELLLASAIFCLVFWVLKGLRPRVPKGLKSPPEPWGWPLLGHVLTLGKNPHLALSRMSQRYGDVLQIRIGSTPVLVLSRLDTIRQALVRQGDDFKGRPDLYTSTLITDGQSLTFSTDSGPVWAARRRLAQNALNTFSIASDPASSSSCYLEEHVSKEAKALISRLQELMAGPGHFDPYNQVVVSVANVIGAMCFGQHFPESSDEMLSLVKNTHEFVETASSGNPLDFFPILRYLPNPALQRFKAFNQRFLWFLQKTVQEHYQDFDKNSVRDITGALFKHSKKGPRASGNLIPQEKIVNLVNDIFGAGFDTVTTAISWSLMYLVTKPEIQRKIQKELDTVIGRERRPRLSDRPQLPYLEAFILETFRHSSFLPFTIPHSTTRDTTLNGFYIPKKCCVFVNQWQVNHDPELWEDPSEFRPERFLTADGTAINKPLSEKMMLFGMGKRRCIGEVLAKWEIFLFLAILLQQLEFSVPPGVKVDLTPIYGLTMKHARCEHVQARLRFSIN

[9] = biological target: CYP3A4 (Homo sapiens, UniProt P08684); assay: clinical; conditions: both, human, in vivo, 3 mg
Protocol: (§1) Methodology: This was a Phase 1, open-label, monosequence crossover, drug-drug interaction study of RAVICTI® and midazolam in healthy male and female subjects.
(§2) Single doses of midazolam HCl syrup (2 mg/mL) were administered in the morning following an approximate 10-hour fast on Days 1 and 5 (coadministered with RAVICTI® on Day 5) just prior to administration of breakfast (˜5 minutes before breakfast).
(§3) Pharmacokinetics: Blood samples for the analysis of plasma midazolam and its metabolite (1′-OH-midazolam, free+conjugates) levels were collected via an indwelling catheter and/or via direct venipuncture. Blood samples were collected on Days 1 and 5 at the following time points: predose, 0.5, 1, 2, 3, 4, 6, 8, 10, 12, 16, and 24 hours postdose. In addition, five plasma PK samples for GPB analysis were collected on Day 4 at the following time points: at 1 minute, 30 minutes, and 1 hour following the first morning dose of RAVICTI; at 30 minutes and 1 hour post second dose of RAVICTI.
(§4) Pharmacokinetics: The possible drug-drug interaction was examined between coadministration of RAVICTI and midazolam (test) and midazolam administered alone (reference). An analysis of variance (ANOVA), with treatment as a fixed effect and subject as a random effect, was performed. Data for Cmax, AUC0-t, and AUC0-∞, as appropriate, were natural log (ln)-transformed prior to analysis. The 90% confidence intervals (CIs) of the test group means relative to the reference group means were obtained by taking the antilog of the corresponding 90% CIs for the differences between the means on the log scale, i.e., ratio of geometric least-squares (LS) means.

[10] = biological target: Cytochrome P450 3A4 (Homo sapiens, UniProt P08684); assay: clinical; conditions: for overall 1′-OH-midazolam exposure (based on AUC) increased by: free+conjugates
Protocol: as §1, §2, §3, §4

[11] = biological target: T1, CYP2C9; assay: clinical; conditions: both, human, plasma, oral, 200 mg
Protocol: (§5) Methodology: This was an open-label, 2-period, monosequence crossover, drug-drug interaction (DDI) study of RAVICTI and celecoxib in healthy male and female subjects.
(§6) Test Product, Dose, Duration, and Mode of Administration: In Treatment A (Period 1), subjects received 200 mg celecoxib (1×200 mg capsule) administered orally with approximately 240 mL of water following an overnight fast and approximately 5 minutes prior to the start of a standard breakfast on Day 1.
(§7) Pharmacokinetics: Blood samples (4 mL) for the analysis of plasma celecoxib were collected on Days 1 (Period 1) and 4 (Period 2) at the following time points: predose (Hour 0) and 1, 2, 3, 4, 6, 8, 12, 16, 24, 36, 48, 60, and 72 hours postdose. A blood sample (6 mL) for CYP2C9 genotyping was collected at screening to exclude any subjects with a slow metabolizer genotype (i.e., CYP2C9*2/*2, CYP2C9*2/*3, CYP2C9*1/*3, and CYP2C9*3/*3). PK parameters for celecoxib in plasma were computed following Day 1 (Period 1) and Day 4 (Period 2) blood draws and included AUC0-t, AUC0-inf, AUC%extr, Cmax, tmax, t1/2, kel, and CL/F.
(§8) Pharmacokinetics: The possible DDI was examined between co-administration of RAVICTI and celecoxib (Treatment B, test) and celecoxib administered alone (Treatment A, reference). An analysis of variance (ANOVA) was performed with treatment as a fixed effect and subject as a random effect. Data for AUC0-t, AUC0-inf, and Cmax, as appropriate, were ln-transformed prior to analysis. The 90% confidence intervals (CIs) of the test group means relative to the reference group means were obtained by taking the antilog of the corresponding 90% CIs for the differences between the means on the log scale, i.e., ratio of geometric least-squares (LS) means.

[12] = biological target: Cytochrome P450 2C9 (Homo sapiens, UniProt P11712); assay: clinical; conditions: 200 mg celecoxib with RAVICTI 4 mL three times a day for 6 days, fed conditions
Protocol: as §5, §6, §7, §8

[13] = Mean peak concentration of PBA and PAA in different patient populations
[14] = test system: CYP3A4/5
[15] = at a concentration higher than the observed plasma concentrations
[16] = 20.7 mM (2.818 mg/ml), pre-incubation time 0 min
[17] = 20.7 mM (2.818 mg/ml), pre-incubation time 30 min
[18] = after RAVICTI 4 mL three times a day for 3 days, fed conditions, healthy subjects
[19] = upon coadministration with multiple-dose RAVICTI
[20] = 5 mM, pre-incubation time 0 min
[21] = 5 mM, pre-incubation time 30 min

CYP2D6, sequence (P10635 whole entry): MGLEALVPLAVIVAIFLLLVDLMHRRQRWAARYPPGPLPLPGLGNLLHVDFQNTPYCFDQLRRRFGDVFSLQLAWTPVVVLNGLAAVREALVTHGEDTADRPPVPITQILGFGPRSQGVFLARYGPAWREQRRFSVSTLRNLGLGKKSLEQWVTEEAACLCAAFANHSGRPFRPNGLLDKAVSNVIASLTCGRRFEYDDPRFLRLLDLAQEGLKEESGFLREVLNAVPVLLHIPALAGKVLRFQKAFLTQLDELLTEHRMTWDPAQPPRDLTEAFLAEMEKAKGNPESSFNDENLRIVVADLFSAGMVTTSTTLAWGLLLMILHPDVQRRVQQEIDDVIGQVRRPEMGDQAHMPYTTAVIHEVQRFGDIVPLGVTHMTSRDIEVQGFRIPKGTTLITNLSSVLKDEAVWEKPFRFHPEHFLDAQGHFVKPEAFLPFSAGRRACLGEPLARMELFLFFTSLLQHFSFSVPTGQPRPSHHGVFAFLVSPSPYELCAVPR
Cytochrome P450 3A4, sequence (P08684 whole entry): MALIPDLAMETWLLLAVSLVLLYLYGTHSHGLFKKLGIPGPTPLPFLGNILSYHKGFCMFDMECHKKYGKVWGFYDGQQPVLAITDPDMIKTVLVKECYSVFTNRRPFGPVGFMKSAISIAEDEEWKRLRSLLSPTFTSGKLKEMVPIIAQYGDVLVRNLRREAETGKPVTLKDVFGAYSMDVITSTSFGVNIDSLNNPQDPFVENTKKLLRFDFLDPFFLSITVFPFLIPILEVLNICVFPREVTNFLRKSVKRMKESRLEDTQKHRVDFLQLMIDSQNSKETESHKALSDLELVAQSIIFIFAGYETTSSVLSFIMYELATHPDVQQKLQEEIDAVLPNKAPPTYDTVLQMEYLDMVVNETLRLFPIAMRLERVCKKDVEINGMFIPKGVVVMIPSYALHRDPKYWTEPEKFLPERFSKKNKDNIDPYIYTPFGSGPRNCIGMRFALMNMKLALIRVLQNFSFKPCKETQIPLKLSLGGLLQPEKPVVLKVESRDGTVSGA
CYP3A4, sequence (P08684 whole entry): as above
T3 sequence (P33261 whole entry): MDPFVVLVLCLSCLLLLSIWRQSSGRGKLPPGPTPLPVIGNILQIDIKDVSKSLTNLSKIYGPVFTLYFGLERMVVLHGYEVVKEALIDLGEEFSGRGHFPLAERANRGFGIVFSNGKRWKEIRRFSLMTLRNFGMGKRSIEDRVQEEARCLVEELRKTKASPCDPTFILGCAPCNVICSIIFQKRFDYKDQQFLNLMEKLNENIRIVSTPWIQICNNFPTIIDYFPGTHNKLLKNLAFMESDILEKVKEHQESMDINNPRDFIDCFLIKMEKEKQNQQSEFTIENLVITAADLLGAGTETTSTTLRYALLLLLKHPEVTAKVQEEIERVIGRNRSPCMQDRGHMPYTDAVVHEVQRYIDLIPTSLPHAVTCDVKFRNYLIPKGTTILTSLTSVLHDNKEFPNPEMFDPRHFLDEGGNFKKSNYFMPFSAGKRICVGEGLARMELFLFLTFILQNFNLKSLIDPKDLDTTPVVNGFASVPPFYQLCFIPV
T1 sequence (P11712 whole entry): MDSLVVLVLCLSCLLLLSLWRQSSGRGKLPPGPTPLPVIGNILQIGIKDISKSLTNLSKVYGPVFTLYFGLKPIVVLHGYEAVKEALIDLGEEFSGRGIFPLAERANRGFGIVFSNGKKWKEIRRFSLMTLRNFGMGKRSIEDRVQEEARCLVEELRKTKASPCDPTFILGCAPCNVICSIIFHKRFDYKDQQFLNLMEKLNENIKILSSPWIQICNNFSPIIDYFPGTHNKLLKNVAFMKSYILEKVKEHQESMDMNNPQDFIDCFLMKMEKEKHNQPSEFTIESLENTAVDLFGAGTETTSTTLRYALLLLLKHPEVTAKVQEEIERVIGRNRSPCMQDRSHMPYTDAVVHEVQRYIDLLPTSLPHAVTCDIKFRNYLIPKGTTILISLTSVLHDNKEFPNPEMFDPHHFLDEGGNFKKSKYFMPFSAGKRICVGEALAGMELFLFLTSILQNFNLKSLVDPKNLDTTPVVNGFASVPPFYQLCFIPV
Cytochrome P450 2C9, sequence (P11712 whole entry): as above

For phenylacetate [PAA], the “% Inhibition” value ([1]; pre-incubation time 0 min) was 47%, the “% Inhibition” value ([1]; pre-incubation time 30 min) was 44% and the “inhibition of CYP2C9 (in words)” value ([1]; at 20.7 mM) was “inhibited”. For the same compound, the “effect on CYP2C9 (in words)” value [1, 15] was “inhibitory effect”, the “[I]/Ki ratio, CYP2C9” value ([1]; based on mean peak PAA concentration in UCD patients) was less than 0.1 and the “induction of CYP3A4/5” value ([2]; cultured human hepatocytes, PAA) was less than 1.8 fold. The “Relative potency (%)” value ([2]; donor Hu0793) was 13.1%, the Fold induction ([2]; donor Hu0793) was 1.4 fold and the “Relative potency (%)” value ([2]; donor Hu4156) was 18.2%. The Fold induction ([2]; donor Hu4156) was 1.7 fold, the Ki [3] was 15.1 mM and the “% Inhibition” value ([4]; pre-incubation time 0 min) was 49%. For the same compound, the “% Inhibition” value ([4]; pre-incubation time 30 min) was 57%, the “inhibition of CYP2D6 (in words)” value ([4]; at 20.7 mM) was “inhibited” and the “% Inhibition” value [5, 16] was 50%. The “% Inhibition” value [5, 17] was 49%, the “inhibition of CYP2C8 (in words)” value ([5]; at 20.7 mM) was “inhibited” and the “% Inhibition” value ([6]; Midazolam 1′-hydroxylase, 20.7 mM (2.818 mg/ml), pre-incubation time 0 min) was 63%. For the same compound, the “% Inhibition” value ([6]; Midazolam 1′-hydroxylase, 20.7 mM (2.818 mg/ml), pre-incubation time 30 min) was 65%, the “% Inhibition” value ([6]; Testosterone 6β-hydroxylase, 20.7 mM (2.818 mg/ml), pre-incubation time 0 min) was 60% and the “% Inhibition” value ([6]; Testosterone 6β-hydroxylase, 20.7 mM (2.818 mg/ml), pre-incubation time 30 min) was 63%. The “inhibition of CYP3A4/5 (in words)” value ([6]; at 20.7 mM) was “inhibited”, the “effect on CYP3A4 (in words)” value [6, 15] was “inhibitory effect” and the “% Inhibition” value [7, 16] was 37%. The “% Inhibition” value [7, 17] was 37%, the “inhibition of CYP2C19 (in words)” value ([7]; at 20.7 mM) was “inhibited” and the “% Inhibition” value [8, 16] was 58%. For the same compound, the “% Inhibition” value [8, 17] was 47% and the “inhibition of CYP1A2 (in words)” value ([8]; at 20.7 mM) was “inhibited”.
Compound `Cc1ncc2n1-c1ccc(Cl)cc1C(c1ccccc1F)=NC2` [Midazolam, midazolam] has an AUC(0-inf) [9] of 67 ng·h/mL, an AUC(0-t) [9] of 64.7 ng·h/mL and a Cmax [9] of 16.8 ng/mL. The “mean AUC for midazolam lower than midazolam alone” value [10, 18] was 32%, the “mean Cmax for midazolam lower than midazolam alone” value [10, 18] was 25% and the “midazolam overall exposure reduced by” value [10, 19] was roughly 32%. The “midazolam peak exposure reduced by” value [10, 19] was “approximately 26%” and the “midazolam peak exposure reduced by” value ([10]; upon coadministration with multiple-dose RAVICTI, listed as midazolam) was 26%.
For `Cc1ccc(-c2cc(C(F)(F)F)nn2-c2ccc(S(N)(=O)=O)cc2)cc1` [Celecoxib, celecoxib], the AUC(0-inf) [11] was 5440 ng·h/mL, the AUC(0-t) [11] was 5170 ng·h/mL and the Cmax [11] was 620 ng/mL. For the same compound, the “mean AUC for celecoxib lower than celecoxib alone” value [12] was 8% and the “mean Cmax for celecoxib lower than celecoxib alone” value [12] was 13%.
In the case of phenylbutyrate [PBA], the “inhibition of CYP2C8 (in words)” value ([5]; 5 mM (0.821 mg/ml)) is reported as “did not inhibit”, the “% Inhibition” value [5, 20] is reported as 24% and the “% Inhibition” value [5, 21] is reported as 27%. The “PBA Mean peak concentration” value ([13]; Cirrhotic - HE 9 ml BID) was 0.1412 mg/mL, the “PBA Mean peak concentration” value ([13]; Healthy volunteer) was 0.037 mg/mL and the “PBA Mean peak concentration” value ([13]; UCD adult) was 0.0701 mg/mL. For the same compound, the “PBA Mean peak concentration” value ([13]; UCD pediatric) was 0.0956 mg/mL, the “% Inhibition” value ([6]; Testosterone 6β-hydroxylase, 5 mM, pre-incubation time 0 min) was 80% and the “% Inhibition” value ([6]; Testosterone 6β-hydroxylase, 5 mM, pre-incubation time 30 min) was 85%. The “extent of induction lower compared to the positive control (rifampicin)” value [14] was “about 50%”, the “inhibition of CYP2C19 (in words)” value ([7]; 5 mM (0.821 mg/ml)) was “did not inhibit” and the “% Inhibition” value [7, 20] was 26%. For the same compound, the “% Inhibition” value [7, 21] was 19%, the “inhibition of CYP1A2 (in words)” value ([8]; 5 mM (0.821 mg/ml)) was “did not inhibit” and the “% Inhibition” value [8, 20] was 6%. For the same compound, the “% Inhibition” value [8, 21] was 2%.
With `OCc1ncc2n1-c1ccc(Cl)cc1C(c1ccccc1F)=NC2` [1′-OH-midazolam] the “mean AUC for 1-hydroxy midazolam higher than midazolam alone” value [10, 18] was 58%, the “mean Cmax for 1-hydroxy midazolam higher than midazolam alone” value [10, 18] was 28% and the “1′-OH-midazolam Cmax (peak exposure) increased by” value [10, 19] was 28%. For the same compound, the “overall 1′-OH-midazolam exposure (based on AUC) increased by” value [10, 19] was “approximately 60%” and the “overall 1′-OH-midazolam exposure (based on AUC) increased by” value ([10]; upon coadministration with multiple-dose RAVICTI, listed as 1′-hydroxy-midazolam) was 60%.

Source: patent publication US20190076384A1, “METHODS FOR TREATING UREA CYCLE DISORDERS” (priority 2017, published 2019)
